This note sets out measurements from article PMC11965169, “Flavin-containing siderophore-interacting protein of Shewanella putrefaciens DSM 9451 reveals common structural and functional aspects of ferric–siderophore reduction” (Journal of Biological Inorganic Chemistry, 2025).

In assay [1] the target is T1, SbSIP (siderophore-interacting protein, flavin-containing siderophore reductase) (Shewanella bicestrii, UniProt A0A220UGT4).
T1 construct: gene CF168_00510
In words: […] NMR titration (slow exchange). It counts as binding.

In assay [2] the target is T2, SbSIP (siderophore-interacting protein, flavin-containing siderophore reductase) (Shewanella bicestrii, UniProt A0A220UGT4).
T2 construct: gene CF168_00510; Trx-His10 tag-free SbSIP; chains A and B, residues 1-3/247-251 and 1-5/249-251 not modelled
T2 sequence (A0A220UGT4 1-250): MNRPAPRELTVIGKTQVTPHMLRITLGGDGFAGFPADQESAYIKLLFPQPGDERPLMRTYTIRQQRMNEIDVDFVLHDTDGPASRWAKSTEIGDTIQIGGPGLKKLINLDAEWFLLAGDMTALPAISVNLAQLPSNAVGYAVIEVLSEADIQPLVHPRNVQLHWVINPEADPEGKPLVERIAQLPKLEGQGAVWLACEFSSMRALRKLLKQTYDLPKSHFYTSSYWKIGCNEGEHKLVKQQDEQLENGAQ
Briefly: X-ray crystal structure, […] Å. It counts as binding.

Assay [3] deals with T1, SbSIP (siderophore-interacting protein, flavin-containing siderophore reductase). Briefly: […] NMR titration (fast exchange, chemical shift perturbation). It counts as binding.
Assay [4] has the same target. Briefly: stopped-flow reduction of ferric siderophore by purified SbSIPsemi, […] nm. Format: biochemical.

Take `NC(=O)C1=CN([C@@H]2O[C@H](COP(=O)(O)OP(=O)(O)OC[C@H]3O[C@@H](n4cnc5c(N)ncnc54)[C@H](O)[C@@H]3O)[C@@H](O)[C@H]2O)C=CC1` [NADH]: binding in assay [1] was characterised by a dissociation constant (Kd) of 17 ± 5 µM. In the case of `Cc1cc2nc3c(=O)[nH]c(=O)nc-3n(C[C@H](O)[C@H](O)[C@H](O)COP(=O)(O)OP(=O)(O)OC[C@H]3O[C@@H](n4cnc5c(N)ncnc54)[C@H](O)[C@@H]3O)c2cc1C` [FAD], in assay [2], the “X-ray crystal structure, 1.86 Å” value is “contained two SbSIP protein chains (A and B), each one bound to an FAD moiety”. On to `NC(=O)C1=CN([C@@H]2O[C@H](COP(=O)(O)OP(=O)(O)OC[C@H]3O[C@@H](n4cnc5c(N)ncnc54)[C@H](OP(=O)(O)O)[C@@H]3O)[C@@H](O)[C@H]2O)C=CC1` [NADPH], for which the Kd in assay [3] came to 107 ± 2 µM.

Regarding Fe(III)–bisucaberin, the “stopped-flow reduction of ferric siderophore by purified SbSIPsemi, 600 nm” value in assay [4] is 0.0014 ± 2 × 10^–4. Regarding Fe(III)–putrebactin, the “stopped-flow reduction of ferric siderophore by purified SbSIPsemi, 600 nm” value in assay [4] is given as 0.0031 ± 5 × 10^–5.

What is called Kd is a measure of binding affinity in units of concentration.
